Measurements reported in patent publication US8501242B2, “Methods and compositions for treating neoplasia” (University of Florida Research Foundation, priority 2009, dated 2013).

What was measured:
[1] = target: human thymidylate synthase (Homo sapiens, UniProt P04818); assay: spectrophotometric assay of human thymidylate synthase activity; assay type: biochemical; conditions: for Ki: Table 2, kinetic parameters of TS in presence of selected compounds
Experimental: A spectrophotometric assay is used to test compounds for their inhibitory activity against human thymidylate synthase activity. This assay is a modification of the assay of Wahba, A. J., and Friedkin, M. (1961). Direct spectrophotometric evidence for the oxidation of tetrahydrofolate during the enzymatic synthesis of thymidylate (J. Biol. Chem. 236, PC11-12).
In the spectrophotometric assay, human thymidylate synthase is preincubated with deoxyuridine monophosphate (and inhibitors) in 96-well plates for 0-5 minutes at room temperature and fresh 5,10-methylene tetrahydrofolate (THF) is added to the mixture immediately before the reaction to yield a volume of 100 μl. 5,10-methylene tetrahydrofolate is prepared fresh prior to every experiment by dissolving THF in 0.26 M formaldehyde, 80 mM dithiothreitol, and 50 mM Tris HCI (pH 6.8/7.0). X-ray crystallography is then utilized to identify any binding site in human thymidylate synthase for an inhibitor and also to characterize its mechanism of action.
The 40 highest scoring compounds in the above-mentioned screening assay were obtained and tested for their abilities to inhibit the biochemical activity of human thymidylate synthase. Four compounds were inhibitory and preliminary studies show the enzyme mechanism to be non-competitive (i.e. through modulating or interfering with association among human thymidylate synthase monomers).

[2] = test system: HT29; assay: cell proliferation experiments, combination with 5-FU; assay type: cell-based, human; conditions: combination of CNX treatment with 5-FU versus 5FU alone
Description: (§1) The combination of certain compounds (e.g., CNX) with certain anti-cancer compounds (e.g., 5-FU) can produce synergistic anticancer effects.

[3] = test system: HeLa; assay: as above; assay type: cell-based, human; conditions: combination of CNX treatment with 5-FU versus 5FU alone
Description: as §1

Chain of human thymidylate synthase (P04818 whole entry): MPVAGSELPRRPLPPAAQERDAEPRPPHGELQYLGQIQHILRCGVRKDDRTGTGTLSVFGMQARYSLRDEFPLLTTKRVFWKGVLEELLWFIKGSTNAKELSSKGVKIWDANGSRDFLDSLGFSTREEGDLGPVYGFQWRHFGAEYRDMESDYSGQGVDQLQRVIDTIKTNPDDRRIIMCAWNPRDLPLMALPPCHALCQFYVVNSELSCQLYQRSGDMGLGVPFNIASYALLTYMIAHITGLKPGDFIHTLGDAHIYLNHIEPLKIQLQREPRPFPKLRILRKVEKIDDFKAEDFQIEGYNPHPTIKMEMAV

SMILES	Ki [1] [µM]	also measured
CCN(CC)S(=O)(=O)c1ccc(C(=O)O)cc1 [NSC49467, P-(Diethylsulfamoyl)benzoic acid]	177	
O=P(O)(O)OCC(O)CO (stereo not drawn) [NSC9231, 2,3-Dihydroxypropyl dihydrogen phosphate]	2.12	
O=C(O)Cn1cc(I)c(=O)c(I)c1 [NSC60718, (3,5-diiodo-4-oxo-1(4H)-pyridinyl)acetic acid]	29.8	
CCn1nc(C(=O)O)c(=O)c2cc3c(cc21)OCO3 [NSC304467, 1-Ethyl-4-oxo-1,4-dihydro[1,3]dioxolo[4,5-g]cinnoline-3-carboxylic acid]	0.32	enzyme mechanism of TS inhibition [1]: non-competitive; inhibiting TS activity (in words) [1]: potent; inhibitory effect on cell proliferation [2]: greater inhibitory effects than 5FU alone; inhibitory effect on cell proliferation [3]: greater inhibitory effects than 5FU alone
O=c1[nH]cc(F)c(=O)[nH]1 [5-FU, 5-fluorouracil, reference compound]	56.7	
CC(=O)Nc1c(I)cc(I)c(C(=O)O)c1I [NSC141235, 3-(acetylamino)-2,4,6-triiodobenzoic acid.6-(methylamino)hexane-1,2,3,4,5-pentol]	5.4	
CC(=O)NC(CS)C(=O)O (stereo not drawn) [NSC111180, 2-acetamido-3-sulfanylpropanoic acid]	602	
O=C(O)C(S)C(S)C(=O)O (stereo not drawn) [NSC16867, 2,3-Dimercaptosuccinic acid]	45.5	
